Measured values as given in patent US7371780B2, “Use of calphostin C to treat drug-resistant tumor cells” (priority 2003, dated 2008).

Columns and labels:
Assay type in all cases: cell-based, human
[1] = test system: caspase-8, PARP and cytochrome C in MCF-7TAX cells; assay: Immunoblotting of apoptosis markers, MCF-7TAX
Method: (§1) For preparation of mitochondrial and cytoplasmic cellular fractions, MCF-7, MCF-7TAX, and MCF-7DOX cells were grown in a monolayer to 70-90% confluence on 10 cm tissue culture plates. Twenty-four hours prior to extraction, the cells were treated with 50 nM light-activated calphostin C as described above. After this treatment, the cells were trypsinized, centrifuged at 1000 rpm in a Beckman GP centrifuge and washed with PBS. To the resulting cell pellet, 1 ml of ice-cold homogenization (HM) buffer was added. This buffer consisted of 85.55 g sucrose, 1.406 g MOPS, 0.292 g EDTA, and 1 ml ethanol per liter of solution, with a final pH of 7.2. Prior to use, 0.2 ml of 0.1 M PMSF, 1 Complete™ protease inhibitor tablet (Roche Diagnostics, Laval, QC), and 20 μl of 1 M DTT was added for 100 ml of HM buffer. Cells were then lysed 10 times by homogenization in a 2 ml dounce homogenizer. Nuclei in the lysate were then pelleted by centrifugation in a microfuge tube at 70 g for 10 minutes at 4° C. and the supernatant carefully removed. The supernatant was clarified by centrifugation at 1950 g for 10 minutes at 4° C. and the pellet (containing mitochondria) was resuspended in 50 μl of HM buffer. The remaining clarified supernatant was deemed the cytoplasmic fraction. […]

[2] = test system: caspase-8, PARP and cytochrome C in MCF-7DOX cells; assay: Immunoblotting of apoptosis markers, MCF-7DOX
Method: as §1

MCF-7DOX cells = assay: Drug uptake, MCF-7DOX
Method: FIG. 5 illustrates the effect of calphostin C (Cal-C) on drug uptake in MCF-7 (square symbols), MCF-7TAX (diamond symbols) and MCF-7DOX (triangular symbols) cells. After one-day growth, the cells were left untreated (closed symbols) or treated with 100 nM calphostin C for 2 h with light activation (open symbols). Cells were then washed and the medium replaced with medium containing 2 μM of doxorubicin (A) or [^3H]-paclitaxel (B). The cells were then trypsinized and drug accumulation measured by flow cytometry (A) or liquid scintillation counting (B) at indicated time points. The figures are representative of three independent experiments.

[3] = light-activated calphostin C, whole cell extracts
[4] = mitochondrial and cytoplasmic fractions

COc1c(C[C@@H](C)OC(=O)Oc2ccc(O)cc2)c2c3c(C[C@@H](C)OC(=O)c4ccccc4)c(OC)c(=O)c4c(O)cc(OC)c(c5c(OC)cc(O)c(c1=O)c52)c43 [calphostin C]
caspase-8 and PARP cleavage (protein levels) [1, 3]: did not result in any change | release of cytochrome C from mitochondria [1, 4]: no clear evidence for the release of cytochrome C | caspase-8 and PARP cleavage (protein levels) [2, 3]: did not result in any change | release of cytochrome C from mitochondria [2, 4]: no clear evidence for the release of cytochrome C | effect on paclitaxel uptake (MCF-7DOX cells; 100 nM calphostin C): little effect | effect on doxorubicin uptake (MCF-7DOX cells; 100 nM calphostin C 2 h with light, then 2 μM doxorubicin): little ability to re-establish doxorubicin uptake
